“Also recorded” adds a separate entry of the source. Where two headings read alike, the source gives them in different places. One block for each compound: values may come before it.
What was measured:
[1] = biological target: recombinant human CYP3A4 (rCYP3A4) (Homo sapiens, UniProt P08684); test: Inhibition of tofacitinib metabolism (M8 formation) by rCYP3A4
Protocol: (§1) All except NADPH were mixed on ice.
(§2) Statistical analysis was conducted using Student's t-test.

[2] = system: HLMs (human liver microsomes); test: Inhibition of tofacitinib metabolism (M8 formation) in HLMs; assay type: in vitro ADME; details: for Inhibition type / Ki: substrate tofacitinib; for IC50: substrate tofacitinib at about Km, 30 min, 37°C
Protocol: as §1, §2

[3] = system: RLMs (rat liver microsomes); test: Inhibition of tofacitinib metabolism (M8 formation) in RLMs by furanocoumarins; assay type: in vitro ADME; details: for inhibitory effectiveness on RLMs (screening, M8 content): 100 μM furanocoumarin, 0.3 mg/mL RLMs; for IC50: substrate tofacitinib at about Km, 30 min, 37°C
Protocol: as §1, §2

[4] = in vivo; parameters: species or system Sprague Dawley rats; details: male, Sprague-Dawley, rat, po, 10 mg/kg
Protocol: Male Sprague Dawley (SD) rats (average weighing 220–250) g were purchased from the laboratory animal center of Wenzhou Medical University, Zhejiang Province, China. Animals were maintained in a controlled environment with a 12 h light-dark cycle at 20°C–25°C and 55% ± 15% relative humidity. Diet intake was not allowed for a period of 12 h prior to the experiment. Then, water was allowed to be free and food was provided after the experiment. All the experimental procedures and protocols were reviewed and approved by the animal ethics committee of Wenzhou Medical University according to the guide for the care and use of laboratory animals (xmsq2021-0409). 36 male rats aged 8–10 weeks were randomly selected and divided into six groups for gavage. […] Blood (300 μL) was collected from the tail veins into 1.5 mL tubes at 5, 15, and 30 min and 1, 2, 3, 4, 6, 8, 12, and 24 h after administering the drugs. The supernatant was collected and stored at −20°C after centrifugation at 4000 rpm for 10 min. The samples were restored to RT before analysis. 50 μL sample was accurately drawn to 1.5 mL of EP tube, 150 μL of midazolam internal standard solution (200 ng/mL) was added to the tube, then placed and vortexed for 15 s. After centrifugation at 13, 000 rpm for 15 min, 150 µL of supernatant was prepared for the UPLC-MS/MS system to analyze.
as §2

[5] = system: HLMs (human liver microsomes); test: Michaelis-Menten kinetics of tofacitinib metabolism (M8 formation) in HLMs; assay type: in vitro ADME; details: tofacitinib metabolism to M8, no inhibitor, n = 3
Protocol: as §1, §2

[6] = system: RLMs (rat liver microsomes); test: Michaelis-Menten kinetics of tofacitinib metabolism (M8 formation) in RLMs; assay type: in vitro ADME; details: tofacitinib metabolism to M8, no inhibitor, n = 3
Protocol: as §1, §2

Chain of recombinant human CYP3A4 (rCYP3A4) (P08684 whole entry): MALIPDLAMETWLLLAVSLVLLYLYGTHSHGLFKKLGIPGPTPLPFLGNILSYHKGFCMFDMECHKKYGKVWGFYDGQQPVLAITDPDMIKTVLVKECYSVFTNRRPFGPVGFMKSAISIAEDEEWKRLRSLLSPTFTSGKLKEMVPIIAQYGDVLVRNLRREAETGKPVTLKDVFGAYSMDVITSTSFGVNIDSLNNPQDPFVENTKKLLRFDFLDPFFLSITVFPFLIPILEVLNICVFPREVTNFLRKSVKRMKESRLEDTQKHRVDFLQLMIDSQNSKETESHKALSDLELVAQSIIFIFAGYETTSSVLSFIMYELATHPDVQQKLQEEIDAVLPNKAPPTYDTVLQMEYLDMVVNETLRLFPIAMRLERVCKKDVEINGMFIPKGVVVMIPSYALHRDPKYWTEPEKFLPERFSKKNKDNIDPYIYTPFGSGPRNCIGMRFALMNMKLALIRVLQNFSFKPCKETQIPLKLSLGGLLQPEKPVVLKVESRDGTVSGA

SMILES: COc1c2ccoc2cc2oc(=O)ccc12 [Bergapten, 5-methoxy-psoralen]
IC50 [1]: 1420 nM
Ki [1]: 1220 nM
Inhibition type ([1]; rCYP3A4, substrate tofacitinib): Competitive inhibition
Inhibition type ([1]; rCYP3A4, substrate tofacitinib, listed as bergapten): competitively inhibited
Inhibition type [2]: Competitive inhibition
Ki [2]: 189 nM
IC50 [2]: 2650 nM
Inhibition type ([2]; listed as bergapten): competitively inhibited
inhibitory effectiveness on RLMs (screening, M8 content) [3]: potent inhibitory activity
Inhibition type ([3]; RLMs, substrate tofacitinib): Competitive inhibition
Ki ([3]; RLMs, substrate tofacitinib): 443 nM
IC50 ([3]; RLMs): 2620 nM
Inhibition type ([3]; RLMs, substrate tofacitinib, listed as bergapten): competitively inhibited

SMILES: O=c1ccc2ccc3occc3c2o1 [Isopsoralen]
risk of DDI with tofacitinib (from Ki) [1]: medium
IC50 ([1]; IC50, rCYP3A4, substrate tofacitinib at about Km, 30 min, 37°C): 17100 nM
Ki ([1]; Ki, rCYP3A4, substrate tofacitinib): 15400 nM
Inhibition type ([1]; rCYP3A4, substrate tofacitinib): competitive suppression; also recorded: Competitive inhibition
Inhibition type [2]: competitive suppression; also recorded: Competitive inhibition
Ki [2]: 1770 nM
IC50 [2]: 12300 nM
inhibitory effectiveness on RLMs (screening, M8 content) [3]: potent inhibitory activity
Inhibition type ([3]; RLMs, substrate tofacitinib): competitive suppression; also recorded: Competitive inhibition
IC50 ([3]; RLMs): 19300 nM

CLz/F [4]: 144 ± 39.3 mL/min/kg
t1/2z [4]: 1.73 ± 0.44 h
MRT last ([4]; MRT(0-t)): 2.1 ± 0.27 h
MRT inf ([4]; MRT(0-∞)): 2.19 ± 0.28 h
Km ([2]; bergapten 0 μM): 47.8 µM
Km ([2]; bergapten 0.5 μM): 53.1 µM
Km ([2]; bergapten 1 μM): 76.7 µM
Km ([2]; bergapten 2 μM): 190 µM
Km ([2]; bergapten 4 μM): ~5860 µM
Km ([2]; isopsoralen 0 μM): 61.7 µM
Km ([2]; isopsoralen 5 μM): 71.1 µM
Km ([2]; isopsoralen 10 μM): 134 µM
Km ([2]; isopsoralen 20 μM): 432 µM
Km ([2]; isopsoralen 40 μM): 930 µM
Km [5]: 65.8 ± 4.75 µM
Km [6]: 76.2 ± 4.51 µM
Km ([3]; RLMs, bergapten 0 μM): 65.5 µM
Km ([3]; RLMs, bergapten 0.5 μM): 72.3 µM
Km ([3]; RLMs, bergapten 1 μM): 88.6 µM
Km ([3]; RLMs, bergapten 2 μM): 160 µM
Km ([3]; RLMs, bergapten 4 μM): 411 µM
Km ([3]; RLMs, isopsoralen 0 μM): 77.7 µM
Km ([3]; RLMs, isopsoralen 5 μM): 114 µM
Km ([3]; RLMs, isopsoralen 10 μM): 259 µM
Km ([3]; RLMs, isopsoralen 20 μM): 538 µM
Km ([3]; RLMs, isopsoralen 40 μM): 410 µM
SMILES: C[C@@H]1CCN(C(=O)CC#N)C[C@@H]1N(C)c1ncnc2[nH]ccc12 [tofacitinib, Tofacitinib]
Vmax ([2]; bergapten 0 μM): 2.973 M8 area ratio
Vmax ([2]; bergapten 0.5 μM): 2.960 M8 area ratio
Vmax ([2]; bergapten 1 μM): 3.018 M8 area ratio
Vmax ([2]; bergapten 2 μM): 4.088 M8 area ratio
Vmax ([2]; bergapten 4 μM): ∼43.85 M8 area ratio
Vmax ([2]; isopsoralen 0 μM): 1.886 M8 area ratio
Vmax ([2]; isopsoralen 5 μM): 1.938 M8 area ratio
Vmax ([2]; isopsoralen 10 μM): 1.718 M8 area ratio
Vmax ([2]; isopsoralen 20 μM): 2.148 M8 area ratio
Vmax ([2]; isopsoralen 40 μM): 2.589 M8 area ratio
Vmax [5]: 2.802 ± 0.0842 M8 area ratio
Vmax [6]: 7.259 ± 0.1879 M8 area ratio
Vmax ([3]; RLMs, bergapten 0 μM): 8.021 M8 area ratio
Vmax ([3]; RLMs, bergapten 0.5 μM): 8.054 M8 area ratio
Vmax ([3]; RLMs, bergapten 1 μM): 8.111 M8 area ratio
Vmax ([3]; RLMs, bergapten 2 μM): 8.689 M8 area ratio
Vmax ([3]; RLMs, bergapten 4 μM): 9.555 M8 area ratio
Vmax ([3]; RLMs, isopsoralen 0 μM): 5.190 M8 area ratio
Vmax ([3]; RLMs, isopsoralen 5 μM): 5.555 M8 area ratio
Vmax ([3]; RLMs, isopsoralen 10 μM): 5.529 M8 area ratio
Vmax ([3]; RLMs, isopsoralen 20 μM): 4.503 M8 area ratio
Vmax ([3]; RLMs, isopsoralen 40 μM): 2.664 M8 area ratio

From PMC11033359 (Frontiers in Pharmacology, 2024)
